Source: US20260184663A1, “INDENE COMPOUNDS, PHARMACEUTICAL COMPOSITIONS THEREOF, AND THEIR THERAPEUTIC APPLICATIONS” (NucMito Pharmaceuticals co. Ltd., priority 2022, published 2026)

Legend:
Type in all cases: cell-based
[1] = system: B16F10 (malignant melanoma); test: Antiproliferative activity (CCK-8 cell viability), B16F10; conditions: Mus musculus, 72 h, read-out: Antiproliferative activity in cancerous cells, B16F10 (inhibition of cell growth); for inhibition at 3.3 µM: B16-F10, Compound concentration: 3.3 μM; for inhibition at 10 µM: B16-F10, Compound concentration: 10 μM; for inhibition at 30 µM: B16-F10, Compound concentration: 30 μM
Outline: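 Attached B16F10 cells in 96-well plates were incubated with compound at 37° C for 72 h, followed by 10 μL CCK-8 reagent per well and a further 4 h incubation. A multi-well plate reader measured absorbance at 450 nm. Percent viability across replicates was calculated against DMSO vehicle-treated cells.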

[2] = system: A549 (lung adenocarcinoma); test: Antiproliferative activity (CCK-8 cell viability), A549; conditions: Homo sapiens, 72 h, read-out: Antiproliferative activity in cancerous cells, A549 (inhibition of cell growth); for inhibition at 3.3 µM: Compound concentration: 3.3 μM; for inhibition at 10 µM: Compound concentration: 10 μM; for inhibition at 30 µM: Compound concentration: 30 μM
Outline: (§1)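 Cells were seeded at 2,000-5,000/well (HeLa in MEM, HepG2 and SW480 in DMEM, A549 in F-12K, all with 10% FBS) and treated with compound at 3.3, 10 or 30 μM for 72 h at 37° C. CCK-8 was added for 4 h, absorbance was read at 450 nm, and viability was expressed relative to DMSO-treated wells.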

[3] = system: MDA-MB-231 (breast cancer); test: Antiproliferative activity (CCK-8 cell viability), MDA-MB-231; conditions: Homo sapiens, 72 h, read-out: Antiproliferative activity in cancerous cells, MDA-MB-231 (inhibition of cell growth); for inhibition at 3.3 µM: Compound concentration: 3.3 μM; for inhibition at 10 µM: Compound concentration: 10 μM; for inhibition at 30 µM: Compound concentration: 30 μM
Outline: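 In this CCK-8 viability assay, MDA-MB-231 cells maintained in Dulbecco's modified Eagle's medium containing 10% fetal bovine serum were placed in 96-well plates (2,000-5,000 cells/well) and treated with compound for 72 h at 37° C. A 4 h incubation with 10 μL CCK-8 followed, plates were read at 450 nm, and viability was expressed against DMSO vehicle wells across replicates.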

SW480 (colon cancer) = test: Antiproliferative activity (CCK-8 cell viability), SW480; conditions: Homo sapiens, 72 h, read-out: Antiproliferative activity in cancerous cells, SW480 (inhibition of cell growth); for inhibition at 3.3 µM: Compound concentration: 3.3 μM; for inhibition at 10 µM: Compound concentration: 10 μM; for inhibition at 30 µM: Compound concentration: 30 μM
Outline: as §1

HepG2 (liver cancer) = test: Antiproliferative activity (CCK-8 cell viability), HepG2; conditions: Homo sapiens, 72 h, read-out: Antiproliferative activity in cancerous cells, HepG2 (inhibition of cell growth); for inhibition at 3.3 µM: Compound concentration: 3.3 μM; for inhibition at 10 µM: Compound concentration: 10 μM; for inhibition at 30 µM: Compound concentration: 30 μM
Outline: as §1

[4] = system: A431 (epidermoid carcinoma); test: Antiproliferative activity (CCK-8 cell viability), A431; conditions: Homo sapiens, 72 h, read-out: Antiproliferative activity in cancerous cells, A431 (inhibition of cell growth); for inhibition at 3.3 µM: A-431, Compound concentration: 3.3 μM; for inhibition at 10 µM: A-431, Compound concentration: 10 μM; for inhibition at 30 µM: A-431, Compound concentration: 30 μM
Outline: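 Cell viability of compound-treated A431 cells was measured with a Cell Counting Kit-8. Each well received 10 μL of CCK-8 after 72 h of compound exposure, followed by 4 h incubation at 37° C. and a 450 nm plate-reader measurement. Percent viability was calculated relative to DMSO controls across replicates.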

HeLa (cervical cancer) = test: Antiproliferative activity (CCK-8 cell viability), HeLa; conditions: Homo sapiens, 72 h, read-out: Antiproliferative activity in cancerous cells, HELA (inhibition of cell growth); for inhibition at 3.3 µM: Compound concentration: 3.3 μM; for inhibition at 10 µM: Compound concentration: 10 μM; for inhibition at 30 µM: Compound concentration: 30 μM
Outline: as §1

Compound | inhibition at 3.3 µM [1] [%] | inhibition at 10 µM [1] [%] | inhibition at 30 µM [1] [%] | inhibition at 3.3 µM [2] [%] | inhibition at 10 µM [2] [%] | inhibition at 30 µM [2] [%] | inhibition at 3.3 µM [3] [%] | inhibition at 10 µM [3] [%] | inhibition at 30 µM [3] [%] | inhibition at 3.3 µM (SW480 (colon cancer)) [%] | inhibition at 10 µM (SW480 (colon cancer)) [%] | inhibition at 30 µM (SW480 (colon cancer)) [%] | inhibition at 3.3 µM (HepG2 (liver cancer)) [%] | inhibition at 10 µM (HepG2 (liver cancer)) [%] | inhibition at 30 µM (HepG2 (liver cancer)) [%] | inhibition at 3.3 µM [4] [%] | inhibition at 10 µM [4] [%] | inhibition at 30 µM [4] [%] | inhibition at 3.3 µM (HeLa (cervical cancer)) [%] | inhibition at 10 µM (HeLa (cervical cancer)) [%] | further results
CC1=C(CC(=O)O)c2cc(F)ccc2/C1=C\c1ccc(Cc2cc3ccccc3o2)cc1 [C311, (Z)-2-(1-(4-(Benzofuran-2-ylmethyl)benzylidene)-5-fluoro-2-methyl-1H-inden-3-yl)acetic acid] | ≥ 50 | ≥ 50 | ≥ 50 | < 30 | < 30 | < 30 | < 30 | ≥ 50 | ≥ 50 | < 30 | < 30 | < 30 | ≥ 50 | ≥ 50 | ≥ 50 | 30 to 50 | 30 to 50 | 30 to 50 | < 30 | < 30 | inhibition at 30 µM (HeLa (cervical cancer)): 30 to 50%
CC1=C(CC(=O)O)c2cc(F)ccc2/C1=C\c1ccc(Cc2cc3ccccc3s2)cc1 [C312, (Z)-2-(1-(4-(Benzo[b]thiophen-2-ylmethyl)benzylidene)-5-fluoro-2-methyl-1H-inden-3-yl)acetic acid] | ≥ 50 | ≥ 50 | ≥ 50 | < 30 | ≥ 50 | ≥ 50 | 30 to 50 | ≥ 50 | ≥ 50 | ≥ 50 | ≥ 50 | ≥ 50 | ≥ 50 | ≥ 50 | ≥ 50 | ≥ 50 | ≥ 50 | ≥ 50 | ≥ 50 | ≥ 50 | inhibition at 30 µM (HeLa (cervical cancer)): ≥ 50%
CC1=C(CC(=O)O)c2cc(F)ccc2/C1=C\c1cccc(C2(c3ccccc3)SCCS2)c1 [C352, (Z)-2-(5-Fluoro-2-methyl-1-(3-(2-phenyl-1,3-dithiolan-2-yl)benzylidene)-1H-inden-3-yl)acetic acid] | < 30 | ≥ 50 | ≥ 50 | < 30 | ≥ 50 | ≥ 50 | 30 to 50 | ≥ 50 | ≥ 50 | < 30 | ≥ 50 | ≥ 50 | < 30 | ≥ 50 | ≥ 50 | < 30 | ≥ 50 | ≥ 50 | < 30 | ≥ 50 | inhibition at 30 µM (HeLa (cervical cancer)): ≥ 50%
CC1=C(CC(=O)O)c2cc(F)ccc2/C1=C\c1ccc(C2(c3ccccc3)SCCS2)cc1 [C353, (Z)-2-(5-Fluoro-2-methyl-1-(4-(2-phenyl-1,3-dithiolan-2-yl)benzylidene)-1H-inden-3-yl)acetic acid] | < 30 | ≥ 50 | ≥ 50 | < 30 | ≥ 50 | ≥ 50 | ≥ 50 | ≥ 50 | ≥ 50 | ≥ 50 | ≥ 50 | ≥ 50 | ≥ 50 | ≥ 50 | ≥ 50 | ≥ 50 | ≥ 50 | ≥ 50 | ≥ 50 | ≥ 50 | inhibition at 30 µM (HeLa (cervical cancer)): ≥ 50%
